Read-outs that look alike come from different tables or passages of the source.

Here are results for 15 compounds from patent US6888001B2, “Pyridyl ethers and thioethers as ligands for nicotinic acetylcholine receptor and its therapeutic application” (priority 1998, dated 2005).

For one assay, the target named is T1, α4β2 nAChR (Rattus norvegicus, UniProt P09483+P12390).
T1 construct: crude synaptic membrane preparations from rat cerebral cortex, striatum and hippocampus; from tissue; host or cells: rat cerebral cortex, striatum and hippocampus (crude synaptic membranes, P2 fraction)
T1 sequence (P09483 31-630): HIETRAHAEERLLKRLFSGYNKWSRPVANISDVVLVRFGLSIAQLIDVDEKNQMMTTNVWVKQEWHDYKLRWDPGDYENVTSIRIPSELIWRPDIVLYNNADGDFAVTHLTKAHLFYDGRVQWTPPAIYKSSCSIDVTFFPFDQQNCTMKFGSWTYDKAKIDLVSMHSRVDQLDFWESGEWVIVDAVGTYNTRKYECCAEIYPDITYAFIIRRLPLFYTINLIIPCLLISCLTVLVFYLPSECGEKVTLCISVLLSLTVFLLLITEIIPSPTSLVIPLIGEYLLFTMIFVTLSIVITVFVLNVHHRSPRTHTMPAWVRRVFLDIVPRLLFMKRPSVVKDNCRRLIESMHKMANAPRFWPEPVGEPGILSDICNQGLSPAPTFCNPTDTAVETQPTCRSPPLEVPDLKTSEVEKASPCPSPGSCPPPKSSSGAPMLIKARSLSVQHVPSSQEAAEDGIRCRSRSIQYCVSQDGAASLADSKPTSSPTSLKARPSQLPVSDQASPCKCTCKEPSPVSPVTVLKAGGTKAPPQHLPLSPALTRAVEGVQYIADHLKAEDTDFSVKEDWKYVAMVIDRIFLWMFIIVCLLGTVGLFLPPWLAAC
T1 sequence (P12390 25-500): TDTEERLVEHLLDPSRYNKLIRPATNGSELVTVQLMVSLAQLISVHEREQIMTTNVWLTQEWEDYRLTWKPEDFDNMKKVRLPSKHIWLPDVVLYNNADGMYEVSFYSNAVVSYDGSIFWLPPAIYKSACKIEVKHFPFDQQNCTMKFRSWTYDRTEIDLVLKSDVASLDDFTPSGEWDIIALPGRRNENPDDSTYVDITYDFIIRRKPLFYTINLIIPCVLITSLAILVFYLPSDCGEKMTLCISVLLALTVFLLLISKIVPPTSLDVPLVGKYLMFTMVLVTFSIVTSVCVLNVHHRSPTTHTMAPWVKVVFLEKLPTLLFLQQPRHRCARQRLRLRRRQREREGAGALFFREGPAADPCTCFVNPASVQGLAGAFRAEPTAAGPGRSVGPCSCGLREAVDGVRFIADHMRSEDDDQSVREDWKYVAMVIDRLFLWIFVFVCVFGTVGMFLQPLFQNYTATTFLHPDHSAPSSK
Briefly: Binding of 3H-cytisine to α4β2 nAChR, crude synaptic membranes. Conditions: for inhibition at 10 µM: read-out: α4β2 % Inhibition at 10 μM. The procedure: α4β2 Nicotinic Acetylcholine Receptor (α4β2 nAChR)
In Vitro Protocol for Determination of α4β2 nAChR Binding Potencies of Ligands
Binding of ^3H-cytisine to neuronal nicotinic acetylcholine receptors was accomplished using crude synaptic membrane preparations from rat cerebral cortex, striatum and hippocampus. Either fresh or frozen membranes were homogenized in ˜50 volumes of 10 mM HEPES (N-2-Hydroxyethylpiperazine-N′-2-Ethanesulfonic acid, pH 7.4) and centrifuged at 42,000×g. The P2 fraction was resuspended in ˜40 volumes of 10 mM HEPES and centrifuged at 42,000×g. This step was repeated and the P2fraction was resuspended in 25 volumes (e.g. 1 g of original into 25 mL) of a medium comprising Na^+-HEPES buffer (10 mM, pH 7.4), 5 mM MgCl2, 0.01% powdered bovine serum albumin (BSA) and 100 mM NaCl. To initiate the binding reaction, test compound (100 μL), Na-HEPES buffered incubation medium (400 μL), ^3H-cytisine (250 μL) and the suspension of biological membranes (250 μL) were mixed, and then the samples were incubated at 23° C. for 40 minutes. The binding reaction was terminated by filtration using a Brandel Cell Harvester and the amount of bound ^3H-cytisine for each sample was quantitated using a Wallac LKB 1205 Betaplate liquid scintillation counter. All test compounds were screened at 10 μM in quadruplicate. Nonspecific binding was determined using 10 μM (+)-epibatidine to block all binding of ^3H-cytisine to the α4β2 nAChR. The activity of each test compound was calculated as follows. After correcting for nonspecific binding, the percent inhibition of specific binding (total binding minus nonspecific) was calculated. Each active compound was further tested at five concentrations to generate a concentration-inhibition curve. The IC50 values were determined using the Prism (GraphPad Software) nonlinear regression program.

A further assay has as its target T2, α7 nAChR (Rattus norvegicus, UniProt Q05941).
T2 construct: crude synaptic membrane preparations from rat cerebral cortex, striatum and hippocampus; from tissue; host or cells: rat cerebral cortex, striatum and hippocampus (crude synaptic membranes, P2 fraction)
Briefly: Binding of 3H-MLA to α7 nAChR, crude synaptic membranes. Conditions: read-out: α7 (% Inh @ 10 uM). Here is the method: α7 Nicotinic Acetylcholine Receptor (α7nAChR)
In Vitro Protocol for Determination of α7nAChR Binding Potencies of Ligands
Binding of ^3H-MLA (methylcaconitine) to neuronal nicotinic acetylcholine receptors was accomplished using crude synaptic membrane preparations from rat cerebral cortex, striatum and hippocampus. Either fresh or frozen membranes were homogenized in ˜50 volumes of 10 mM HEPES (N-2-Hydroxyethylpiperazine-N′-2-Ethanesulfonic acid, pH 7.4) and centrifuged at 42,000×g. The P2 fraction was resuspended in ˜40 volumes of 10 mM HEPES and centrifuged at 42,000×g. This step was repeated and the P2 fraction was resuspended in 25 volumes (e.g. 1 g of original into 25 mL) of a medium comprised of Na^+-HEPES buffer (10 mM, pH 7.4), 5 mM MgCl2, 0.01% powdered bovine serum albumin (BSA), and 100 mM NaCl. To initiate the binding reaction, test compound (100 μL), Na-HEPES buffered incubation medium (400 μL), ^3H-MLA (250 μL) and the suspension of biological membranes (250 μL) were mixed, and then the samples were incubated at 23° C. for 40 minutes., The binding reaction was terminated by filtration using a Brandel Cell Harvester, and the amount of bound ^3H-MLA for each sample was quantitated using a Wallac LKB 1205 Betaplate liquid scintillation counter. All test compounds were screened at 10 μM in quadruplicate. Nonspecific binding was determined using 10 μM MLA to block all binding of ^3H-MLA to the α7 nAChR. The activity of each test compound was calculated as follows. After correcting for nonspecific binding, the percent inhibition of specific binding (total binding minus nonspecific) was calculated. Each active compound was further tested at five concentrations to generate a concentration-inhibition curve. The IC50 values were determined using the Prism (GraphPad Software) nonlinear regression program.

Where [1] appears, read: 3H-cytisine, rat cerebral cortex, striatum and hippocampus membranes, IC50 from five concentrations, read-out: α4β2.

T2 sequence (Q05941 23-502): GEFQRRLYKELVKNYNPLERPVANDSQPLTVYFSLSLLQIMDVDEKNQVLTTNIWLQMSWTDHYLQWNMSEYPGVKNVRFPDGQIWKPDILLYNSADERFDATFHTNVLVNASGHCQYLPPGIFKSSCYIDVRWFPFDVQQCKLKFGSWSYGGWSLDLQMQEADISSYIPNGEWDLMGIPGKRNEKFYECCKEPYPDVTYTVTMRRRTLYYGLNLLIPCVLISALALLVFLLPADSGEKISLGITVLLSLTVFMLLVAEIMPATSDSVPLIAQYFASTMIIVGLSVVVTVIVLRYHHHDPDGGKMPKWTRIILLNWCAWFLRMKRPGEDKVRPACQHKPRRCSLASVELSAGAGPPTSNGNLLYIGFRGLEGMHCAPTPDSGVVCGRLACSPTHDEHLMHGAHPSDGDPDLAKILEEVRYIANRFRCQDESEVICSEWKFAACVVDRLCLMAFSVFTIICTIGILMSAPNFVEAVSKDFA

For the compound `c1cncc(OC2CNC2)c1` [Example 1, 3-(3-Azetidinyloxy)-pyridine], the inhibition at 10 µM at α4β2 nAChR came out at 46%; at α7 nAChR it was 21%.

In the case of `c1cncc(OC2CCNC2)c1` (stereo not drawn) [Example 2, 3-(3-Pyrrolidinyloxy)-pyridine], the IC50 on α4β2 nAChR (setting [1]) was 0.209 µM. In addition, on α7 nAChR, the inhibition at 10 µM was -15%.

Turning to `c1cncc(O[C@H]2CCNC2)c1` [Example 3, 3-(3-(S)-Pyrrolidinyloxy)-pyridine], at α4β2 nAChR (setting [1]), the IC50 stood at 0.449 µM. For the same compound, on α7 nAChR, the inhibition at 10 µM was determined as 5%.

Regarding `c1cncc(O[C@@H]2CCNC2)c1` [Example 4, 3-(3-(R)-Pyrrolidinyloxy)-pyridine], the IC50 on α4β2 nAChR (setting [1]) was determined as 0.045 µM. The inhibition at 10 µM on α7 nAChR stood at 11%.

As for `CN1CC[C@@H](Oc2cccnc2)C1` [Example 5, 3-(1-Methyl-3-(R)-pyrrolidinyloxy)-pyridine], the IC50 on α4β2 nAChR (setting [1]) came out at 0.544 µM. Besides, the inhibition at 10 µM at α7 nAChR is 20%.

On to `Clc1ccc(O[C@@H]2CCNC2)cn1` [Example 6, 2-Chloro-5-(3-(R)-pyrrolidinyloxy)-pyridine], for which, on α4β2 nAChR, the IC50 came to 0.466 µM. Also, the inhibition at 10 µM at α7 nAChR came to 20%.

`CN1CCC(Oc2cccnc2)C1` (stereo not drawn) [Example 7, 3-(1-Methyl-3-pyrrolidinyloxy)-pyridine]: the IC50 at α4β2 nAChR (setting [1]) is 0.092 µM. Also, the inhibition at 10 µM at α7 nAChR came out at 22%.

In the case of `CCN1CCC(Oc2cccnc2)C1` (stereo not drawn) [Example 8, 3-(1-Ethyl-3-pyrrolidinyloxy)-pyridine], the inhibition at 10 µM was 71% at α4β2 nAChR and 18% on α7 nAChR.

For `CC(C)N1CCC(Oc2cccnc2)C1` (stereo not drawn) [Example 9, 3-(1-Isopropyl-3-pyrrolidinyloxy)-pyridine], the values for the inhibition at 10 µM at α4β2 nAChR and at α7 nAChR were 30% and 19%, respectively.

`c1cncc(OC2CCCNC2)c1` (stereo not drawn) [Example 10, 3-(3-Piperidinyloxy)-pyridine]: the IC50 on α4β2 nAChR (setting [1]) amounted to 0.204 µM. Moreover, at α7 nAChR, the inhibition at 10 µM is 19%.

`c1cncc(O[C@H]2CCCNC2)c1` [Example 11, 3-(3-(S)-Piperidinyloxy)-pyridine] gave an IC50 at α4β2 nAChR of 0.673 µM. On α7 nAChR, the inhibition at 10 µM amounted to 86%.

For `Clc1ncc(O[C@@H]2CCNC2)cc1Br` [Example 12, 2-Chloro-3-bromo-5-(3-(R)-pyrrolidinyloxy)-pyridine], the IC50 at α4β2 nAChR (setting [1]) was 0.094 µM. Moreover, the inhibition at 10 µM at α7 nAChR is 11%.

As for `N#Cc1ccc(-c2cc(O[C@@H]3CCNC3)cnc2Cl)cc1` [Example 13, 2-Chloro-3-(4-cyano)phenyl-5-(3-(R)-pyrrolidinyloxy)-pyridine], the IC50 at α4β2 nAChR (setting [1]) amounted to 0.022 µM. Moreover, the inhibition at 10 µM at α7 nAChR turned out to be 26%.

`COc1cccc(-c2cc(O[C@@H]3CCNC3)cnc2Cl)c1` [Example 14, 2-Chloro-3-(3-methoxy)phenyl-5-(3-(R)-pyrrolidinyloxy)-pyridine]: the IC50 at α4β2 nAChR (setting [1]) amounted to 0.058 µM. For the same compound, at α7 nAChR, the inhibition at 10 µM amounted to 33%.

As to `C[Si](C)(C)C#Cc1ccc(-c2cc(O[C@@H]3CCNC3)cnc2Cl)cc1` [Example 15, 2-Chloro-3-(4-trimethylsilylethynyl)phenyl-5-(3-(R)-pyrrolidinyloxy)-pyridine], at α4β2 nAChR, the IC50 came out at 0.025 µM. Further, the inhibition at 10 µM at α7 nAChR came to 22%.
